Experimental data: patent publication US10934274B2, “Quinoline derivatives as TAM RTK inhibitors” (Qurient Co., Ltd., priority 2015, dated 2021)

Legend:
Axl = biological target: T1, Axl (Homo sapiens, UniProt P30530); test: LanthaScreen Eu kinase binding assay, Axl; settings: Tracer 236
T1 construct: purchased Life Technologies
T1 sequence (P30530 26-894): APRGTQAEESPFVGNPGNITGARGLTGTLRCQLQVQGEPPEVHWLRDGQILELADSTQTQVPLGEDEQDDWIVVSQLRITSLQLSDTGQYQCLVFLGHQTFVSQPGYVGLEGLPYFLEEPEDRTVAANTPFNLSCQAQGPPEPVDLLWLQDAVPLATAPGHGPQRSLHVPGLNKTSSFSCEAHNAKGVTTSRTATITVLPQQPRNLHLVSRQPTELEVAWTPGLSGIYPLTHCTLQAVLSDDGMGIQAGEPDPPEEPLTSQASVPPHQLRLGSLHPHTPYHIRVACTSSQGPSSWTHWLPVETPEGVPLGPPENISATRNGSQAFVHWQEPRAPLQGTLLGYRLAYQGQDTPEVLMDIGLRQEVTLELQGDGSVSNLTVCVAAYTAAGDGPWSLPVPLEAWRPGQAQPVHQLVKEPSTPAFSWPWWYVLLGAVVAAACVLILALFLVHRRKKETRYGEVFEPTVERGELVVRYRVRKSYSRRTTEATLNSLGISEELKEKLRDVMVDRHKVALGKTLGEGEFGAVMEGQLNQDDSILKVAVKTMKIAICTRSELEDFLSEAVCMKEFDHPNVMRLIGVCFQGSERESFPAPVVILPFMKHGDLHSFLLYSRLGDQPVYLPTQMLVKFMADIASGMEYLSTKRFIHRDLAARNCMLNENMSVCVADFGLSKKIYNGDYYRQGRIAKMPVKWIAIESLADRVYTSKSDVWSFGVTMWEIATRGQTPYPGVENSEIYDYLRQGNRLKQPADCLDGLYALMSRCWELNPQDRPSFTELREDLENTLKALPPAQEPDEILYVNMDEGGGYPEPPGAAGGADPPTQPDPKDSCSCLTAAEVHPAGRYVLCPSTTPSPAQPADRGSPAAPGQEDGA

TYRO3 = biological target: T2, TYRO3 (Homo sapiens, UniProt Q06418); test: LanthaScreen Eu kinase binding assay, TYRO3; settings: Tracer 236
T2 construct: purchased Life Technologies
T2 sequence (Q06418 41-890): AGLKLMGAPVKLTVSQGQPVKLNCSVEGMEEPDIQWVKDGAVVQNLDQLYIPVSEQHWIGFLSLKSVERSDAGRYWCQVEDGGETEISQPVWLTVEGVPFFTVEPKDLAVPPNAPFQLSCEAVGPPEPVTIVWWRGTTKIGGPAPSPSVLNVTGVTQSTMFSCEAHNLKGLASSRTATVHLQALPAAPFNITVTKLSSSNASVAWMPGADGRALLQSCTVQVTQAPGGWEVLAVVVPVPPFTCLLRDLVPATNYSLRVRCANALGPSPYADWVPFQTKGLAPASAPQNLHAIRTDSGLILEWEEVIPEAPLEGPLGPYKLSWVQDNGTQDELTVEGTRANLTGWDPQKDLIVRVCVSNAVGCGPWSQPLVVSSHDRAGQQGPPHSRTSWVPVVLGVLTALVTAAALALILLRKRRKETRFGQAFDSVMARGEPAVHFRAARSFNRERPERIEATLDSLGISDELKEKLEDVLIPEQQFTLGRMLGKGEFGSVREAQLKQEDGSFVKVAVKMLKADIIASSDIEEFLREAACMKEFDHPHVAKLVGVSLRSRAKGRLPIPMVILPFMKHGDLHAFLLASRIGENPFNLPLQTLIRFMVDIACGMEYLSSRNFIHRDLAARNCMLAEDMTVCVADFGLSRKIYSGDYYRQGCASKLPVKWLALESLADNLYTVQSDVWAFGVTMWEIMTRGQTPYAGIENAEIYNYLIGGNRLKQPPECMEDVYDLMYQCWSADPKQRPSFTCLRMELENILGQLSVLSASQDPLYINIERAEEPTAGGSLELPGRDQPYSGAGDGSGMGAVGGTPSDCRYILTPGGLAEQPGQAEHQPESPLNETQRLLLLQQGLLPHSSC

Met = biological target: T3, Met (Homo sapiens, UniProt P08581); test: LanthaScreen Eu kinase binding assay, Met; settings: Tracer 236, read-out: cMet kinase binding activity (Kd)
T3 construct: purchased Life Technologies
T3 sequence (P08581 25-1390): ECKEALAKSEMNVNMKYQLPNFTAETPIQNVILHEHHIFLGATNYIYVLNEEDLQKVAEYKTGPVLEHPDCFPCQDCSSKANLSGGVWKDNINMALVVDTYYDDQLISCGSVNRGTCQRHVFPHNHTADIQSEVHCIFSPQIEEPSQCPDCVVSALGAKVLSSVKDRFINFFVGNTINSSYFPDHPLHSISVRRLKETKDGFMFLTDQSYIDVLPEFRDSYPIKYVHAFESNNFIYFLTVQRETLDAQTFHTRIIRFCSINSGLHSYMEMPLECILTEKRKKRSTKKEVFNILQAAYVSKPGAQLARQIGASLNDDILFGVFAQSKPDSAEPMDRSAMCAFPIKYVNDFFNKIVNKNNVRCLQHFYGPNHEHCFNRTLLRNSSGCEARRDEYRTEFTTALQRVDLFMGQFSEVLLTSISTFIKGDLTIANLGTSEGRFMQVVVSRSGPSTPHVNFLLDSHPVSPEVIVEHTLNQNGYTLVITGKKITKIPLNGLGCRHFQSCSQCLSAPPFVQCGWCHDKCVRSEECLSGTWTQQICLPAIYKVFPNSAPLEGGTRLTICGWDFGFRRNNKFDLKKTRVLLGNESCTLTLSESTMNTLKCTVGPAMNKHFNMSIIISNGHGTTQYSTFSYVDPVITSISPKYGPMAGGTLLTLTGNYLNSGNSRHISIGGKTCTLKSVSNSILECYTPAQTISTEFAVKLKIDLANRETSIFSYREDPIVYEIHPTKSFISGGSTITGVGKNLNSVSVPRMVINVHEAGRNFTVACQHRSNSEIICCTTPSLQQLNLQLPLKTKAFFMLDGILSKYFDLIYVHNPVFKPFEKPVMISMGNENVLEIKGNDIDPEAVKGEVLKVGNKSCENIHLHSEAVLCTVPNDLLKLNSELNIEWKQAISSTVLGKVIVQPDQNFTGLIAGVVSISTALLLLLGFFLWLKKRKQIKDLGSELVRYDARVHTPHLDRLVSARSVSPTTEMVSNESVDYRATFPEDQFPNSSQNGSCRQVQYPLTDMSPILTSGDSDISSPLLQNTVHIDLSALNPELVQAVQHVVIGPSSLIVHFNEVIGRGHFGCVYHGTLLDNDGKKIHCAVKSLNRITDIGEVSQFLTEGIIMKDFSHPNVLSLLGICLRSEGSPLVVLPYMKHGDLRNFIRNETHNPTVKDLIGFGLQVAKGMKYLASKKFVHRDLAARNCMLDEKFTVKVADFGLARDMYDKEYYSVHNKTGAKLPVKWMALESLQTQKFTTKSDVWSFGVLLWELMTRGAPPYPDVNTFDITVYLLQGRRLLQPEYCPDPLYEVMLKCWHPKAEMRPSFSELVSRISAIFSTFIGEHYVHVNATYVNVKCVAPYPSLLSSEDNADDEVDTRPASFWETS

| Structure (SMILES) | Kd (Axl) [nM] | Kd (TYRO3) [nM] | Kd (Met) [nM] |
| --- | --- | --- | --- |
| CCOc1cn(-c2cnc(N)nc2)nc1C(=O)Nc1ccc(Oc2ccnc3cc(OC(C)C)c(OC)cc23)cc1F [Compound 230] | < 100 | ≥ 1000 | ≥ 1000 |
| COc1cc2nccc(Oc3ccc(NC(=O)c4nn(-c5cnc(N)nc5)cc4OC(F)F)nc3)c2cc1OC [Compound 254] | < 100 | ≥ 1000 | ≥ 1000 |
| COc1cc2nccc(Oc3ccc(NC(=O)c4nn(-c5cnc(Cl)cn5)cc4OCC(F)(F)F)nc3)c2cc1OC [Compound 236] | < 100 | < 100 | < 100 |
| CCOc1cn(CCn2cccn2)nc1C(=O)Nc1ccc(Oc2ccnc3cc(OC)c(OC)cc23)cn1 [Compound 37] | < 100 | 100 to 1000 | 100 to 1000 |
| CCOc1cn(-c2cnccc2C(C)(O)CO)nc1C(=O)Nc1ccc(Oc2ccnc3cc(OC)c(OC)cc23)cc1F (stereo not drawn) [Compound 227] | < 100 | < 100 | < 100 |
| CCOc1cn(-c2ccn(C)c2)nc1C(=O)Nc1ccc(Oc2ccnc3cc(OC)c(OC)cc23)cn1 [Compound 56] | < 100 | < 100 | < 100 |
| COc1cc2nccc(Oc3ccc(NC(=O)c4nn(-c5ccc(F)c(C(C)=O)c5)cc4OCC4CC4)nc3)c2cc1OC [Compound 274] | < 100 | < 100 | < 100 |
| CCC(C)Oc1cc2nccc(Oc3ccc(NC(=O)c4nn(-c5cccnc5)cc4OCC(F)(F)F)nc3)c2cc1OC (stereo not drawn) [Compound 234] | < 100 | < 100 | 100 to 1000 |
| COc1cc2nccc(Oc3ccc(NC(=O)c4nn(-c5cnc(N)cn5)cc4OCC(F)(F)F)c(F)c3)c2cc1OC [Compound 252] | < 100 | < 100 | ≥ 1000 |
| CCOc1cnn(-c2cccs2)c1C(=O)Nc1ccc(Oc2ccnc3cc(OC)c(OC)cc23)cn1 [Compound 20] | < 100 | 100 to 1000 | 100 to 1000 |
| CCOc1oc(-c2cccnc2)nc1C(=O)Nc1ccc(Oc2ccnc3cc(OC)c(OC)cc23)cn1 [Compound 44] | < 100 | ≥ 1000 | < 100 |
| COc1cc2nccc(Oc3ccc(NC(=O)c4nn(-c5cnc(N)nc5)cc4OC(C)C)nc3)c2cc1OC [Compound 260] | < 100 | < 100 | < 100 |
| CCOc1cnn(C2CCCN(C)C2)c1C(=O)Nc1ccc(Oc2ccnc3cc(OC)c(OC)cc23)cc1F (stereo not drawn) [Compound 213] | ≥ 1000 | ≥ 1000 | ≥ 1000 |
| COc1cc2c(Oc3ccc(NC(=O)c4nn(-c5cnc(N)cn5)cc4OCC(F)(F)F)c(F)c3)ccnc2cc1OC(C)C [Compound 246] | < 100 | < 100 | ≥ 1000 |
| CCOc1cn(-c2cnc(N)nc2)nc1C(=O)Nc1ccc(Oc2ccnc3cc(OC)c(OC(F)(F)F)cc23)cn1 [Compound 241] | < 100 | ≥ 1000 | ≥ 1000 |
| CCOc1cn(-c2cccs2)nc1C(=O)Nc1ccc(Oc2ccnc3cc(OC)c(OC)cc23)cn1 [Compound 17] | < 100 | < 100 | < 100 |
| CCOc1cnn(C)c1C(=O)Nc1ccc(Oc2ccnc3cc(OC)c(OC)cc23)cn1 [Compound 30] | ≥ 1000 | ≥ 1000 | 100 to 1000 |
| CCOc1cn(Cc2cnccc2C)nc1C(=O)Nc1ccc(Oc2ccnc3cc(OC)c(OC)cc23)cc1F [Compound 226] | < 100 | 100 to 1000 | < 100 |
| CCOc1cn(C2CCCN(C(N)=O)C2)nc1C(=O)Nc1ccc(Oc2ccnc3cc(OC)c(OC)cc23)cc1F (stereo not drawn) [Compound 225] | < 100 | 100 to 1000 | 100 to 1000 |
| COc1cc2nccc(Oc3ccc(NC(=O)c4nn(-c5ccc(OC(F)(F)F)cc5Cl)cc4OCC4CC4)nc3)c2cc1OC [Compound 244] | < 100 | < 100 | < 100 |

| Structure (SMILES) | Kd (Axl) [nM] | Kd (TYRO3) [nM] | Kd (Met) [nM] |
| --- | --- | --- | --- |
| COc1cc2nccc(Oc3ccc(NC(=O)c4nn(-c5ccc(F)cc5N5CCOCC5)cc4OCC4CC4)nc3)c2cc1OC [Compound 266] | < 100 | < 100 | < 100 |
| COc1cc2nccc(Oc3ccc(NC(=O)c4nn(-c5cnc(N)nc5)cc4OCC4CC4)nc3)c2cc1OC [Compound 240] | < 100 | < 100 | < 100 |
| CCOc1cn(Cc2cnccn2)nc1C(=O)Nc1ccc(Oc2ccnc3cc(OC)c(OC)cc23)cc1F [Compound 215] | < 100 | < 100 | < 100 |
| COc1cc2nccc(Oc3ccc(NC(=O)c4nn(-c5cnc(N)nc5)cc4OCC(F)(F)F)c(F)c3)c2cc1OC [Compound 259] | < 100 | < 100 | < 100 |
| COc1cc2c(Oc3ccc(NC(=O)c4nn(-c5cnc(N)nc5)cc4OCC(F)(F)F)nc3)ccnc2cc1OC(C)C [Compound 257] | < 100 | < 100 | < 100 |
| CCOc1cn(CC(C)=O)nc1C(=O)Nc1ccc(Oc2ccnc3cc(OC)c(OC)cc23)cn1 [Compound 66] | < 100 | 100 to 1000 | 100 to 1000 |
| CCOc1cn(-c2cccnc2C)nc1C(=O)Nc1ccc(Oc2ccnc3cc(OC)c(OC)cc23)cn1 [Compound 23] | < 100 | < 100 | < 100 |
| CCOc1cn(-c2cnccc2CO)nc1C(=O)Nc1ccc(Oc2ccnc3cc(OC)c(OC(F)(F)F)cc23)cn1 [Compound 233] | < 100 | < 100 | ≥ 1000 |
| CCOc1cn(CC)nc1C(=O)Nc1ccc(Oc2ccnc3cc(OC)c(OC)cc23)cn1 [Compound 27] | < 100 | < 100 | 100 to 1000 |
| CCOc1cn(-c2nccnc2C(C)(O)CO)nc1C(=O)Nc1ccc(Oc2ccnc3cc(OC)c(OC)cc23)cc1F (stereo not drawn) [Compound 229] | < 100 | < 100 | < 100 |
| CCOc1cn(-c2cnc(C#N)nc2)nc1C(=O)Nc1ccc(Oc2ccnc3cc(OC)c(OC)cc23)cn1 [Compound 55] | < 100 | < 100 | 100 to 1000 |
| COc1cc2nccc(Oc3ccc(NC(=O)c4nn(-c5cnc(N)cn5)cc4OCC(F)(F)F)nc3)c2cc1OC [Compound 248] | < 100 | < 100 | < 100 |
| CCOc1cn(-c2ccco2)nc1C(=O)Nc1ccc(Oc2ccnc3cc(OC)c(OC)cc23)cn1 [Compound 57] | < 100 | < 100 | < 100 |
| CCOc1cn(-c2cnccc2CCN(C)C)nc1C(=O)Nc1ccc(Oc2ccnc3cc(OC)c(OC)cc23)cn1 [Compound 65] | < 100 | < 100 | < 100 |
| COc1cc2nccc(Oc3ccc(NC(=O)c4nn(-c5cnc(N)nc5)cc4OCC4COC4)nc3)c2cc1OC [Compound 269] | < 100 | < 100 | 100 to 1000 |
| CCOc1cn(-c2ncco2)nc1C(=O)Nc1ccc(Oc2ccnc3cc(OC)c(OC)cc23)cn1 [Compound 59] | < 100 | < 100 | < 100 |
| COc1cc2nccc(Oc3ccc(NC(=O)c4nn(-c5cnc(N)cn5)cc4OCC4CC4)nc3)c2cc1OC [Compound 249] | < 100 | < 100 | < 100 |
| CCOc1cn(-c2ccnnc2)nc1C(=O)Nc1ccc(Oc2ccnc3cc(OC)c(OC)cc23)cn1 [Compound 40] | < 100 | ≥ 1000 | < 100 |
| COc1cc2nccc(Oc3ccc(NC(=O)c4nn(-c5cnc(N)nc5)cc4OCC(F)(F)F)nc3)c2cc1OC [Compound 237] | < 100 | < 100 | < 100 |
